Here are results for 17 molecules from patent publication US20250122174A1 (Shenzhen Yuanli Shenwan Innovative Medicine Co., Ltd., priority 2022, published 2025).

Molecules are shown by their SMILES.

The target in this assay is HPK1 (Homo sapiens (Human), UniProt Q92918). Nature of the assay: HPK1 Inhibition Assay (ADP-Glo kinase assay). The assay is classed as biochemical. The following applies: ATP 10 μM. The essentials: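 ADP-Glo luminescence read-out after 1 h room-temperature kinase reaction with 10 μM ATP and 0.1 μg/ml MBP. Recombinant human HPK1 at 7.5 ng/μl; buffer 40 mM Tris pH 7.5, 20 mM MgCl2. Compounds serially diluted 5-fold over 10 points from 10 mM DMSO stock.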
HPK1, sequence (Q92918 1-346 limits assumed): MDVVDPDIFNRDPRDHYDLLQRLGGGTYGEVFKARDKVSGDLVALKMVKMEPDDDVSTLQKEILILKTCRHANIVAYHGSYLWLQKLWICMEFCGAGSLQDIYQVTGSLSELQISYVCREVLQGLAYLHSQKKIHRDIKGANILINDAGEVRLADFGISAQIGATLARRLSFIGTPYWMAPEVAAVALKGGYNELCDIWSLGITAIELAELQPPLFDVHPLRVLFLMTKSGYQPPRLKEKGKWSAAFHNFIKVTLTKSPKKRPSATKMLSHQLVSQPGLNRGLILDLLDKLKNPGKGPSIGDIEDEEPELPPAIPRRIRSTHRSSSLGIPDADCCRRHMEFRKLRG
For the molecule `C[C@@H]1CN(c2c(NC(=O)c3ccc(=O)n(-c4c(F)cccc4F)n3)ccc3nn(C45CCC(CC4)CC5)cc23)C[C@@H]1N` [Example 304, N-(4-((3R,4R)-3-amino-4-methylpyrrolidin-1-yl)-2-(bicyclo[2.2.2]octan-1-yl)-2H-indazol-5-yl)-1-(2,6-difluorophenyl)-6-oxo-1,6-dihydropyridazine-3-carboxamide], the IC50 (commonly the concentration at which inhibition is half-maximal) is less than 100 nM.

For the molecule `C[C@@H]1CN(c2c(NC(=O)c3ccc(=O)n(-c4c(F)cccc4F)n3)ccc3nn(C45CC6CC(CC(C6)C4)C5)cc23)C[C@@H]1N` [Example 305, N-(2-((3S,5S,7S)-adamantan-1-yl)-4-((3R,4R)-3-amino-4-methylpyrrolidin-1-yl)-2H-indazol-5-yl)-1-(2,6-difluorophenyl)-6-oxo-1,6-dihydropyridazine-3-carboxamide], the IC50 is less than 100 nM.

`C[C@@H]1CN(c2c(NC(=O)c3ccc(=O)n(-c4c(F)cccc4F)n3)ccc3nn(C45CCC(CC4)C5)cc23)C[C@@H]1N` [Example 306, N-(4-((3R,4R)-3-amino-4-methylpyrrolidin-1-yl)-2-(bicyclo[2.2.1]heptan-1-yl)-2H-indazol-5-yl)-1-(2,6-difluorophenyl)-6-oxo-1,6-dihydropyridazine-3-carboxamide] had an IC50 of less than 100 nM.

`C[C@@H]1CN(c2c(NC(=O)c3ccc(=O)n(-c4c(F)cccc4F)n3)ccc3nn(C4CC(F)(F)C4)cc23)C[C@@H]1N` [Example 307, N-(4-((3R,4R)-3-amino-4-methylpyrrolidin-1-yl)-2-(3,3-difluorocyclobutyl)-2H-indazol-5-yl)-1-(2,6-difluorophenyl)-6-oxo-1,6-dihydropyridazine-3-carboxamide] returned an IC50 of less than 100 nM.

Consider `C[C@@H]1CN(c2c(NC(=O)c3ccc(=O)n(-c4c(F)cccc4F)n3)ccc3nn(C4CCN(C)CC4)cc23)C[C@@H]1N` [Example 308, N-(4-((3R,4R)-3-amino-4-methylpyrrolidin-1-yl)-2-(1-methylpiperidin-4-yl)-2H-indazol-5-yl)-1-(2,6-difluorophenyl)-6-oxo-1,6-dihydropyridazine-3-carboxamide], for which the IC50 was less than 100 nM.

In the case of `C[C@H]1CN(c2c(NC(=O)c3ccc(=O)n(-c4c(F)cccc4F)n3)ccc3nn(C4CC(F)(F)C4)cc23)C[C@@H]1N` [Example 309, N-(4-((3R,4S)-3-amino-4-methylpyrrolidin-1-yl)-2-(3,3-difluorocyclobutyl)-2H-indazol-5-yl)-1-(2,6-difluorophenyl)-6-oxo-1,6-dihydropyridazine-3-carboxamide], the IC50 is less than 100 nM.

Molecule `C[C@H]1CN(c2c(NC(=O)c3ccc(=O)n(-c4c(F)cccc4F)n3)ccc3nn(C4(C)CC4)cc23)C[C@@H]1N` [Example 310, N-(4-((3R,4S)-3-amino-4-methylpyrrolidin-1-yl)-2-(1-methylcyclopropyl)-2H-indazol-5-yl)-1-(2,6-difluorophenyl)-6-oxo-1,6-dihydropyridazine-3-carboxamide] registered an IC50 of less than 100 nM.

Consider `CC1(n2cc3c(N4C[C@H](N)C5(CC5)C4)c(NC(=O)c4ccc(=O)n(-c5c(F)cccc5F)n4)ccc3n2)CC1` [Example 311, (R)-N-(4-(7-amino-5-azaspiro[2.4]heptan-5-yl)-2-(1-methylcyclopropyl)-2H-indazol-5-yl)-1-(2,6-difluorophenyl)-6-oxo-1,6-dihydropyridazine-3-carboxamide], for which the IC50 was less than 100 nM.

`C[C@H]1CN(c2c(NC(=O)c3ccc(=O)n(-c4c(F)cccc4F)n3)ccc3nn(C45CCC(CC4)C5)cc23)C[C@@H]1N` [Example 312, N-(4-((3R,4S)-3-amino-4-methylpyrrolidin-1-yl)-2-(bicyclo[2.2.1]heptan-1-yl)-2H-indazol-5-yl)-1-(2,6-difluorophenyl)-6-oxo-1,6-dihydropyridazine-3-carboxamide] registered an IC50 of less than 100 nM.

As for `C[C@@H]1CN(c2c(NC(=O)c3ccc(=O)n(-c4c(F)cccc4F)n3)ccc3nn(C4(C(F)(F)F)CC4)cc23)C[C@@H]1N` [Example 315, N-(4-((3R,4R)-3-amino-4-methylpyrrolidin-1-yl)-2-(1-(trifluoromethyl)cyclopropyl)-2H-indazol-5-yl)-1-(2,6-difluorophenyl)-6-oxo-1,6-dihydropyridazine-3-carboxamide], the IC50 was less than 100 nM.

Molecule `C[C@@H]1CN(c2c(NC(=O)c3ccc(=O)n(-c4c(F)cccc4F)n3)ccc3nn(C45CC(C4)C5)cc23)C[C@@H]1N` [Example 316, N-(4-((3R,4R)-3-amino-4-methylpyrrolidin-1-yl)-2-(bicyclo[1.1.1]pentan-1-yl)-2H-indazol-5-yl)-1-(2,6-difluorophenyl)-6-oxo-1,6-dihydropyridazine-3-carboxamide] came in with an IC50 of less than 100 nM.

Regarding `C[C@@H]1CN(c2c(NC(=O)c3ccc(=O)n(-c4c(F)cccc4F)n3)ccc3nn(C4(C)CCC4)cc23)C[C@@H]1N` [Example 317, 1-(2,6-difluorophenyl)-N-{4-[(3R,4R)-3-amino-4-methyltetrahydro-1H-pyrrol-1-yl]-2-(methylcyclobutyl)indazol-5-yl}-6-oxo-1,2-diazine-3-carboxamide], the half-maximal inhibitory concentration (IC50) was less than 100 nM.

`C[C@@H]1CN(c2c(NC(=O)c3ccc(=O)n(-c4c(F)cccc4F)n3)ccc3nn(C45CC(C)(C4)C5)cc23)C[C@@H]1N` [Example 318, N-(4-((3R,4R)-3-amino-4-methylpyrrolidin-1-yl)-2-(3-methylbicyclo[1.1.1]pentan-1-yl)-2H-indazol-5-yl)-1-(2,6-difluorophenyl)-6-oxo-1,6-dihydropyridazine-3-carboxamide]: the IC50 was less than 100 nM.

`C[C@@H]1CN(c2c(NC(=O)c3ccc(=O)n(-c4c(F)cccc4F)n3)ccc3nn(C45CC(C(F)(F)F)(C4)C5)cc23)C[C@@H]1N` [Example 319, N-(4-((3R,4R)-3-amino-4-methylpyrrolidin-1-yl)-2-(3-(trifluoromethyl)bicyclo[1.1.1]pentan-1-yl)-2H-indazol-5-yl)-1-(2,6-difluorophenyl)-6-oxo-1,6-dihydropyridazine-3-carboxamide] yielded an IC50 of less than 100 nM.

`C[C@H]1CN(c2c(NC(=O)c3ccc(=O)n(-c4c(F)cccc4F)n3)ccc3nn(C45CC(C4)C5)cc23)C[C@@H]1N` [Example 320, N-(4-((3R,4S)-3-amino-4-methylpyrrolidin-1-yl)-2-(bicyclo[1.1.1]pentan-1-yl)-2H-indazol-5-yl)-1-(2,6-difluorophenyl)-6-oxo-1,6-dihydropyridazine-3-carboxamide] returned an IC50 of less than 100 nM.

In turn, `C[C@H]1CN(c2c(NC(=O)c3ccc(=O)n(-c4c(F)cccc4F)n3)ccc3nn(C4(C)CCC4)cc23)C[C@@H]1N` [Example 321, N-(4-((3R,4S)-3-amino-4-methylpyrrolidin-1-yl)-2-(1-methylcyclobutyl)-2H-indazol-5-yl)-1-(2,6-difluorophenyl)-6-oxo-1,6-dihydropyridazine-3-carboxamide] had an IC50 of less than 100 nM.

`CC1(C)CN(c2c(NC(=O)c3ccc(=O)n(-c4c(F)cccc4F)n3)ccc3nn([C@@H]4CCOC4)cc23)C[C@@H]1N` [Example 322, N-(4-((R)-4-amino-3,3-dimethylpyrrolidin-1-yl)-2-((R)-tetrahydrofuran-3-yl)-2H-indazol-5-yl)-1-(2,6-difluorophenyl)-6-oxo-1,6-dihydropyridazine-3-carboxamide] came in with an IC50 of less than 100 nM.
